Assay results from PubChem BioAssay AID248 (DTP/NCI, 2004).
Values joined by “and” are separate entries in the source; they are usually repeats but may differ in a detail not shown here. Identical values can stand only once. Toxic doses and inconclusive results are not listed.

Tested on: L1210 leukemia ip in BDF1 mice, survival T/C
Experiment: NCI In Vivo Anticancer Drug Screen. Data for tumor model L1210 Leukemia (intraperitoneal) in B6D2F1 (BDF1) mice
Settings: endpoint: mean survival time, higher = longer survival
Summary of the method: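 Survival endpoint. Drug-treated group vs vehicle group, expressed as T divided by C. Tumor passaged by transplantation.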

In the case of `O=c1[nH]c(=O)n(C2CC(O)C(CO)O2)cc1C(F)(F)F` (stereo unspecified), the T/C (dose: 0.16 mg/kg/injection, schedule: Q#B X045 (ip), vehicle: saline) is reported as 109 % of control, the T/C (dose: 0.33 mg/kg/injection, schedule: Q#B X045 (ip), vehicle: saline) is reported as 119 % of control and the T/C (dose: 0.56 mg/kg/injection, schedule: Q01DX Z (ip), vehicle: saline) is reported as 112 % of control. For the same compound, the T/C (dose: 0.66 mg/kg/injection, schedule: Q#B X045 (ip), vehicle: saline) was 122 % of control, the T/C (dose: 1.12 mg/kg/injection, schedule: Q01DX Z (ip), vehicle: saline) was 106 % of control and the T/C (dose: 1.5 mg/kg/injection, schedule: Q01DX Z (sc), vehicle: saline) was 112 % of control. The T/C (dose: 2.25 mg/kg/injection, schedule: Q01DX Z (ip), vehicle: saline) was 118 % of control, the T/C (dose: 3.0 mg/kg/injection, schedule: Q01DX Z (sc), vehicle: saline) was 114 % of control and the T/C (dose: 3.12 mg/kg/injection, schedule: Q01DX Z (im), vehicle: saline) was 104 % of control. For the same compound, the T/C (dose: 4.5 mg/kg/injection, schedule: Q01DX Z (ip), vehicle: saline) was 114 % of control, the T/C (dose: 6.0 mg/kg/injection, schedule: Q01DX Z (sc), vehicle: saline) was 118 % of control and the T/C (dose: 6.25 mg/kg/injection, schedule: Q01DX006 (iv), vehicle: saline) was 121 % of control. For the same compound, the T/C (dose: 6.25 mg/kg/injection, schedule: Q01DX015 (ip), vehicle: saline) was 120 % of control, the T/C (dose: 9.0 mg/kg/injection, schedule: Q01DX Z (ip), vehicle: saline) was 153 % of control and the T/C (dose: 12.0 mg/kg/injection, schedule: Q01DX Z (sc), vehicle: saline) was 118 % of control. The T/C (dose: 12.5 mg/kg/injection, schedule: Q01DX006 (iv), vehicle: saline) was 115 % of control, the T/C (dose: 12.5 mg/kg/injection, schedule: Q01DX Z (oral), vehicle: saline) was 120 % of control and the T/C (dose: 18.0 mg/kg/injection, schedule: Q01DX Z (ip), vehicle: saline) was 150 % of control. For the same compound, the T/C (dose: 18.75 mg/kg/injection, schedule: Q#A X034 (ip), vehicle: water) was 122 % of control, the T/C (dose: 20.0 mg/kg/injection, schedule: Q01DX009 (oral), vehicle: saline) was 116 % of control and the T/C (dose: 20.0 mg/kg/injection, schedule: Q01DX Z (ip), vehicle: saline) was 119 % of control. The T/C (dose: 25.0 mg/kg/injection, schedule: Q01DX015 (ip), vehicle: saline) was 152 % of control, the T/C (dose: 25.0 mg/kg/injection, schedule: Q01DX Z (ip), vehicle: saline) was 160 % of control and the T/C (dose: 25.0 mg/kg/injection, schedule: Q01DX Z (oral), vehicle: saline) was 120 % of control. For the same compound, the T/C (dose: 38.0 mg/kg/injection, schedule: Q01DX Z (ip), vehicle: water) was 117 % of control, the T/C (dose: 40.0 mg/kg/injection, schedule: Q01DX009 (oral), vehicle: saline) was 121 % of control and the T/C (dose: 45.0 mg/kg/injection, schedule: Q01DX015 (oral), vehicle: saline) was 122 % of control. The T/C (dose: 50.0 mg/kg/injection, schedule: Q01DX Z (ip), vehicle: saline) was 154 % of control, the T/C (dose: 50.0 mg/kg/injection, schedule: Q01DX Z (sc), vehicle: saline) was 156 % of control and the T/C (dose: 64.0 mg/kg/injection, schedule: Q01DX009 (ip), vehicle: water) was 156 % of control. For the same compound, the T/C (dose: 65.0 mg/kg/injection, schedule: Q01DX015 (oral), vehicle: saline) was 104 % of control, the T/C (dose: 65.0 mg/kg/injection, schedule: Q01DX Z (ip), vehicle: water) was 157 % of control and the T/C (dose: 100.0 mg/kg/injection, schedule: Q01DX001 (ip), vehicle: saline) was 106 % of control and 107 % of control. For the same compound, the T/C (dose: 100.0 mg/kg/injection, schedule: Q01DX015 (oral), vehicle: saline) was 120 % of control, the T/C (dose: 100.0 mg/kg/injection, schedule: Q01DX Z (im), vehicle: saline) was 154 % of control and the T/C (dose: 100.0 mg/kg/injection, schedule: Q## X001 (ip), vehicle: saline) was 103 % of control. The T/C (dose: 107.0 mg/kg/injection, schedule: Q01DX Z (ip), vehicle: water) was 154 % of control, the T/C (dose: 128.0 mg/kg/injection, schedule: Q01DX001 (oral), vehicle: saline) was 112 % of control and the T/C (dose: 128.0 mg/kg/injection, schedule: Q01DX009 (ip), vehicle: water) was 151 % of control. The T/C (dose: 128.0 mg/kg/injection, schedule: Q## X003 (oral), vehicle: saline) was 119 % of control, the T/C (dose: 128.0 mg/kg/injection, schedule: Q## X024 (oral), vehicle: saline) was 115 % of control and the T/C (dose: 150.0 mg/kg/injection, schedule: Q01DX Z (ip), vehicle: saline) was 159 % of control. The T/C (dose: 150.0 mg/kg/injection, schedule: Q04DX005 (ip), vehicle: water) was 118 % of control, the T/C (dose: 150.0 mg/kg/injection, schedule: Q#A X034 (ip), vehicle: water) was 124 % of control and the T/C (dose: 180.0 mg/kg/injection, schedule: Q01DX Z (ip), vehicle: water) was 122 % of control. The T/C (dose: 200.0 mg/kg/injection, schedule: Q01DX001 (ip), vehicle: saline) was 109 % of control, the T/C (dose: 200.0 mg/kg/injection, schedule: Q01DX Z (sc), vehicle: saline) was 160 % of control and the T/C (dose: 200.0 mg/kg/injection, schedule: Q## X001 (ip), vehicle: saline) was 111 % of control. For the same compound, the T/C (dose: 250.0 mg/kg/injection, schedule: Q01DX001 (ip), vehicle: saline) was 112 % of control, the T/C (dose: 250.0 mg/kg/injection, schedule: Q01DX Z (ip), vehicle: saline) was 157 % of control and the T/C (dose: 251.0 mg/kg/injection, schedule: Q01DX Z (ip), vehicle: saline) was 108 % of control. The T/C (dose: 256.0 mg/kg/injection, schedule: Q01DX001 (oral), vehicle: saline) was 112 % of control, the T/C (dose: 256.0 mg/kg/injection, schedule: Q01DX009 (ip), vehicle: saline) was 150 % of control and the T/C (dose: 256.0 mg/kg/injection, schedule: Q01DX009 (oral), vehicle: saline) was 157 % of control. For the same compound, the T/C (dose: 256.0 mg/kg/injection, schedule: Q03HX016 (ip), vehicle: water) was 153 % of control, the T/C (dose: 256.0 mg/kg/injection, schedule: Q04DX003 (ip), vehicle: water) was 116 % of control and the T/C (dose: 300.0 mg/kg/injection, schedule: Q01DX001 (ip), vehicle: water) was 106 % of control. The T/C (dose: 300.0 mg/kg/injection, schedule: Q01DX017 (ip), vehicle: water) was 119 % of control, the T/C (dose: 300.0 mg/kg/injection, schedule: Q01DX Z (ip), vehicle: water) was 102 % of control and the T/C (dose: 300.0 mg/kg/injection, schedule: Q01DX Z (oral), vehicle: saline) was 116 % of control. The T/C (dose: 300.0 mg/kg/injection, schedule: Q03DX Z (ip), vehicle: saline) was 118 % of control, the T/C (dose: 300.0 mg/kg/injection, schedule: Q04DX005 (ip), vehicle: water) was 123 % of control and the T/C (dose: 320.0 mg/kg/injection, schedule: Q01DX015 (ip), vehicle: saline) was 98 % of control. The T/C (dose: 350.0 mg/kg/injection, schedule: Q01DX Z (ip), vehicle: saline) was 111 % of control, the T/C (dose: 351.0 mg/kg/injection, schedule: Q01DX Z (ip), vehicle: saline) was 114 % of control and the T/C (dose: 400.0 mg/kg/injection, schedule: Q01DX001 (ip), vehicle: saline) was 98 % of control and 113 % of control. For the same compound, the T/C (dose: 400.0 mg/kg/injection, schedule: Q01DX Z (im), vehicle: saline) was 159 % of control, the T/C (dose: 400.0 mg/kg/injection, schedule: Q## X001 (ip), vehicle: saline) was 116 % of control and the T/C (dose: 480.0 mg/kg/injection, schedule: Q01DX015 (ip), vehicle: saline) was 98 % of control. For the same compound, the T/C (dose: 500.0 mg/kg/injection, schedule: Q01DX001 (ip), vehicle: saline) was 112 % of control, the T/C (dose: 512.0 mg/kg/injection, schedule: Q01DX001 (oral), vehicle: saline) was 112 % of control and the T/C (dose: 512.0 mg/kg/injection, schedule: Q01DX009 (ip), vehicle: saline) was 117 % of control. For the same compound, the T/C (dose: 512.0 mg/kg/injection, schedule: Q04DX003 (ip), vehicle: water) was 120 % of control, the T/C (dose: 512.0 mg/kg/injection, schedule: Q## X008 (oral), vehicle: saline) was 121 % of control and the T/C (dose: 600.0 mg/kg/injection, schedule: Q01DX001 (ip), vehicle: water) was 107 % of control. The T/C (dose: 600.0 mg/kg/injection, schedule: Q01DX Z (oral), vehicle: saline) was 106 % of control, the T/C (dose: 600.0 mg/kg/injection, schedule: Q02DX009 (ip), vehicle: water) was 159 % of control and the T/C (dose: 600.0 mg/kg/injection, schedule: Q04DX005 (ip), vehicle: water) was 119 % of control. For the same compound, the T/C (dose: 800.0 mg/kg/injection, schedule: Q01DX001 (ip), vehicle: saline) was 107 % of control and 116 % of control, the T/C (dose: 800.0 mg/kg/injection, schedule: Q01DX006 (iv), vehicle: saline) was 154 % of control and the T/C (dose: 800.0 mg/kg/injection, schedule: Q01DX Z (ip), vehicle: saline) was 124 % of control. The T/C (dose: 800.0 mg/kg/injection, schedule: Q01DX Z (oral), vehicle: saline) was 110 % of control, the T/C (dose: 800.0 mg/kg/injection, schedule: Q## X001 (ip), vehicle: saline) was 121 % of control and the T/C (dose: 1000.0 mg/kg/injection, schedule: Q01DX001 (ip), vehicle: saline) was 123 % of control. For the same compound, the T/C (dose: 1024.0 mg/kg/injection, schedule: Q01DX001 (oral), vehicle: saline) was 121 % of control, the T/C (dose: 1024.0 mg/kg/injection, schedule: Q01DX009 (oral), vehicle: saline) was 101 % of control and the T/C (dose: 1024.0 mg/kg/injection, schedule: Q## X003 (oral), vehicle: saline) was 156 % of control. For the same compound, the T/C (dose: 1200.0 mg/kg/injection, schedule: Q01DX001 (ip), vehicle: water) was 104 % of control, the T/C (dose: 1200.0 mg/kg/injection, schedule: Q01DX Z (im), vehicle: saline) was 121 % of control and the T/C (dose: 1200.0 mg/kg/injection, schedule: Q01DX Z (sc), vehicle: saline) was 115 % of control. For the same compound, the T/C (dose: 1200.0 mg/kg/injection, schedule: Q04DX005 (ip), vehicle: water) was 119 % of control, the T/C (dose: 1600.0 mg/kg/injection, schedule: Q01DX Z (im), vehicle: saline) was 113 % of control and the T/C (dose: 1600.0 mg/kg/injection, schedule: Q01DX Z (oral), vehicle: saline) was 97 % of control. For the same compound, the T/C (dose: 1600.0 mg/kg/injection, schedule: Q01DX Z (sc), vehicle: saline) was 107 % of control, the T/C (dose: 2400.0 mg/kg/injection, schedule: Q01DX001 (ip), vehicle: water) was 104 % of control and the T/C (dose: 4096.0 mg/kg/injection, schedule: Q## X008 (oral), vehicle: saline) was 151 % of control.
